Legend:
DPP-IV = target: T1, DPP-IV (Homo sapiens, UniProt P27487); assay: DPP-IV assay with extract of the human colon carcinoma cell line Caco-2 as DPP IV source, AFC substrate, fluorescence; assay type: biochemical; details: solubilised Caco-2 protein, substrate 100 μM, 60 minutes at ambient temperature, 11-point curves; read-out: DPP IV inhibition IC50
T1 construct: an extract of the human colon carcinoma cell line Caco-2 is used as the DPP IV source; endogenous in cells; host or cells: Caco-2 (human colon carcinoma), differentiated to induce DPP-IV expression; Nonidet-P40 solubilised extract
T1 sequence (P27487 whole entry): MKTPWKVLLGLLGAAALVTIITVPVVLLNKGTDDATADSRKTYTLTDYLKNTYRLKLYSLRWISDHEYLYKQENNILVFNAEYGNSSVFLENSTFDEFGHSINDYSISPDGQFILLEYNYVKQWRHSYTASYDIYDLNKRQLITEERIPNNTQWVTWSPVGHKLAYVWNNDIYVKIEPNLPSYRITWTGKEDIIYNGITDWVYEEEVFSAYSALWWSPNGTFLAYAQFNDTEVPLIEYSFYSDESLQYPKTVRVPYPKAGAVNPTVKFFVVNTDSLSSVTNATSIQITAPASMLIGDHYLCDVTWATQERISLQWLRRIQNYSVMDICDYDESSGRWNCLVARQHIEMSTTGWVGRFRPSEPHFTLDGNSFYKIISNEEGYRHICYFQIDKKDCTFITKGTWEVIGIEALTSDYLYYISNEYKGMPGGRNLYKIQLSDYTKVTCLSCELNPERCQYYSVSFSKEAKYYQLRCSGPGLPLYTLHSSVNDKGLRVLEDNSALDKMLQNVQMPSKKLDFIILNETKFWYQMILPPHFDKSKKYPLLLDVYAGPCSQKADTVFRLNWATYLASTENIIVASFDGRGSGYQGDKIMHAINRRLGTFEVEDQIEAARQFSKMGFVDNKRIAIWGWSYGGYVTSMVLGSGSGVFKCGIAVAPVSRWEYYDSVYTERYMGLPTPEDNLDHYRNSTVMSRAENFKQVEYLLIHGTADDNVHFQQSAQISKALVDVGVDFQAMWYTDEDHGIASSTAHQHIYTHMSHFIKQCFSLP
Protocol: The differentiation of the cells in order to induce the DPP-IV expression was carried out in accordance with the description by Reiher et al. in an article entitled “Increased expression of intestinal cell line Caco-2”, which appeared in Proc. Natl. Acad. Sci. Vol. 90, pp. 5757-5761 (1993).
The cell extract was obtained from cells solubilised in a buffer (10 mM Tris HCl, 0.15 M NaCl, 0.04 t.i.u. aprotinin, 0.5% Nonidet-P40, pH 8.0) by centrifugation at 35,000 g for 30 minutes at 4° C. (to remove cell debris).
The DPP-IV assay was carried out as follows:
50 μl of substrate solution (AFC; AFC is amido-4-trifluoromethylcoumarin), final concentration 100 μM, were placed in black microtitre plates. 20 μl of assay buffer (final concentrations 50 mM Tris HCl, pH 7.8, 50 mM NaCl, 1% DMSO) was pipetted in. The reaction was started by the addition of 30 μl of solubilised Caco-2 protein (final concentration 0.14 μg of protein per well). The test substances under investigation were typically added prediluted to 20 μl, while the volume of assay buffer was then reduced accordingly. The reaction was carried out at ambient temperature, the incubation period was 60 minutes. Then the fluorescence was measured in a Victor 1420 Multilabel Counter, with the excitation wavelength at 405 nm and the emission wavelength at 535 nm. Dummy values (corresponding to 0% activity) were obtained in mixtures with no Caco-2 protein (volume replaced by assay buffer), control values (corresponding to 100% activity) were obtained in mixtures without any added substance. The potencies of the test substances in question, expressed as IC50 values, were calculated from dosage/activity curves consisting of 11 measured points in each case.

[1] = Tolerability after oral administration; assay type: in vivo; details: oral administration of 10 mg/kg

SMILES	IC50 (DPP-IV) [nM]	toxic side effects / tolerability [1]
CC#CCn1c(N(C)CC(C)(C)N)nc2cnn(Cc3ccccc3C#N)c(=O)c21 [2(1), 2-[N-(2-amino-2-methyl-propyl)-N-methyl-amino]-3-(2-butyn-1-yl)-5-(2-cyanophenyl-methyl)-3,5-dihydro-imidazo[4,5-d]pyridazin-4-one]	336	
CC#CCn1c(N(C)CCN)nc2cnn(Cc3nc(C)c4ccccc4n3)c(=O)c21 [Example 1, 2-[N-(2-aminoethyl)-N-methyl-amino]-3-(2-butyn-1-yl)-5-[(4-methyl-quinazolin-2-yl)methyl]-3,5-dihydro-imidazo[4,5-d]pyridazin-4-one]	1	no toxic side effects
CC#CCn1c(N(C)CCN)nc2ccn(Cc3nc(C)cc4ccccc34)c(=O)c21 [1(2), 2-[N-(2-aminoethyl)-N-methyl-amino]-3-(2-butyn-1-yl)-5-[(3-methyl-isoquinolin-1-yl)methyl]-3,5-dihydro-imidazo[4,5-c]pyridin-4-one]	34	
CC#CCn1c(N(C)CCN)nc2cnn(Cc3nc(C)cc4ccccc34)c(=O)c21 [1(1), 2-[N-(2-aminoethyl)-N-methyl-amino]-3-(2-butyn-1-yl)-5-[(3-methyl-isoquinolin-1-yl)methyl]-3,5-dihydro-imidazo[4,5-d]pyridazin-4-one]	10	

Continued, in another order:

IC50 (DPP-IV) [nM]	SMILES	toxic side effects / tolerability [1]
2	CC#CCn1c(N(C)C[C@H](C)N)nc2cnn(Cc3nc(C)c4ccccc4n3)c(=O)c21 [Example 3, (S)-2-[N-(2-aminopropyl)-N-methyl-amino]-3-(2-butyn-1-yl)-5-[(4-methyl-quinazolin-2-yl)methyl]-3,5-dihydro-imidazo[4,5-d]pyridazin-4-one]	
76	CC#CCn1c(N(C)C[C@H](C)N)nc2cnn(Cc3ccccc3C#N)c(=O)c21 [Example 2, (S)-2-[N-(2-amino-propyl)-N-methyl-amino]-3-(2-butyn-1-yl)-5-(2-cyanophenylmethyl)-3,5-dihydro-imidazo[4,5-d]pyridazin-4-one]	

— patent US7476671B2, “2-amino-imidazo[4,5-d]pyridazin-4-ones, their preparation and their use as pharmaceutical compositions” (Boehringer Ingelheim International GmbH, priority 2004, dated 2009)
